How the values were obtained:
[1] = human absorption data, from Ertl et al., J. Med. Chem, 2000; cited from earlier work
NHE3 = biological target: T1, NHE3 (Homo sapiens, UniProt P48764); assay: persistent inhibition of NHE3 in the cell-based assay of example 181 (4-chloro vs 4-cyano pairs); conditions: for IC50: read-out: pIC50 (persistent) (converted); for Percent Inhibition: cell-based assay of example 181, persistent
T1 construct: expressed in transfected cells
T1 sequence (P48764 26-834): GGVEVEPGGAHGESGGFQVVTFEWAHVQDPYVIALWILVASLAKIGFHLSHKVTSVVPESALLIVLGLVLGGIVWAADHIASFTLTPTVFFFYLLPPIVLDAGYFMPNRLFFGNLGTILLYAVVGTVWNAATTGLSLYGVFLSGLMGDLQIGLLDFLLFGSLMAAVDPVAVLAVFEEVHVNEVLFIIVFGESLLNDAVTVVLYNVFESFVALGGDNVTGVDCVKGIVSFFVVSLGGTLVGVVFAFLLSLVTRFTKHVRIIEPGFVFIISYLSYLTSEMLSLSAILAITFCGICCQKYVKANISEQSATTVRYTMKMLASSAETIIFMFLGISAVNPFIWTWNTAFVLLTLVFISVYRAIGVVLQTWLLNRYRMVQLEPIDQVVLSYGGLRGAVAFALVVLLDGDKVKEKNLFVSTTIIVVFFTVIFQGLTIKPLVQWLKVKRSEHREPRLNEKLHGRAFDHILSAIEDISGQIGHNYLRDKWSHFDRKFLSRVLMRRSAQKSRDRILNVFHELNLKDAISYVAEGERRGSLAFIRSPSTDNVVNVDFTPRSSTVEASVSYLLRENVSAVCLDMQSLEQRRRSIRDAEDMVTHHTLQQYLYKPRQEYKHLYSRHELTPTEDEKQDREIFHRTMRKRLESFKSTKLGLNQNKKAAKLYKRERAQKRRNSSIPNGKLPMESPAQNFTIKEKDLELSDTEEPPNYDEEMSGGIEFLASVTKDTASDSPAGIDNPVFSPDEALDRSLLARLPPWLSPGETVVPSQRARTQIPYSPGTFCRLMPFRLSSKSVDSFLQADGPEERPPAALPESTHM
T1 sequence (Q99653 2-195 partner limits assumed): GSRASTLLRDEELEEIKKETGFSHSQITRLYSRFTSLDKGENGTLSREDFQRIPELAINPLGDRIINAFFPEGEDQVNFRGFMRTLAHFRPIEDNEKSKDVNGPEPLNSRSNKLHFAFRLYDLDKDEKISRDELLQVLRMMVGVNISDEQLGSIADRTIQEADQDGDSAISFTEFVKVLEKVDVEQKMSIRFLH
Procedure: The following pairs of compounds differ only in the 4-position substituent (either chloro (X—Cl) or cyano (X—CN)):
The ability of compounds to inhibit human and rat NHE-3-mediated Na^+ dependent H^+ antiport after application and washout was measured using a modification of the pH sensitive dye method described above. PS120 fibroblasts stably expressing human NHE3 and NHERF2 were obtained from Mark Donowitz (Baltimore, Md.). Opossum kidney (OK) cells were obtained from the ATCC and propagated per their instructions. The rat NHE-3 gene was introduced into OK cells via electroporation, and cells were seeded into 96 well plates and grown overnight. Medium was aspirated from the wells, cells were washed once with NaCl-HEPES buffer (100 mM NaCl, 50 mM HEPES, 10 mM glucose, 5 mM KCl, 2 mM CaCl2, 1 mM MgCl2, pH 7.4), then overlayed with NaCl-HEPES buffer containing 0-30 μM test compound. After a 60 min incubation at room temperature, the test drug containing buffer was aspirated from the cells. Following aspiration, cells were washed once with NaCl-HEPES buffer without drug, then incubated for 30 min at 37° C. with NH4Cl-HEPES buffer (20 mM NH4Cl, 80 mM NaCl, 50 mM HEPES, 5 mM KCl, 2 mM CaCl2, 1 mM MgCl2, pH 7.4) containing 5 μM BCECF-AM. Cells were washed once with Ammonium free, Na^+-free HEPES (100 mM choline, 50 mM HEPES, 10 mM glucose, 5 mM KCl, 2 mM CaCl2, 1 mM MgCl2, pH 7.4) and incubated in the same buffer for 10 minutes at room temperature to lower intracellular pH. NHE-3-mediated recovery of neutral intracellular pH was initiated (10 min after compound washout) by addition of Na-HEPES buffer. […] Changes in intracellular pH were monitored using a FLIPR Tetra® (Molecular Devices, Sunnyvale, Calif.) by excitation at λex 439 to 505 nm, and measuring BCECF fluorescence at λem 538 nm. The initial rate of the fluorescence ratio change was used as a measure of NHE-mediated Na^+/H^+ activity, and reported as the change in fluorescence ratio per minute.

[2] = cell-based assay of example 181, after washout

| Compound | % FA [1] [%] | further results |
| --- | --- | --- |
| OC[C@H]1O[C@@H](O[C@@H]2[C@@H](CO)OC(O)(CO)[C@H]2O)[C@H](O)[C@@H](O)[C@H]1O (mixture of isomers) [lactulose, reference compound] | 0.6 | – |
| CN(C)[C@@H]1CCCN([C@H]2Cc3c(C#N)cc(Cl)cc3[C@@H]2Oc2ccc(S(=O)(=O)NCCOCCOCCNC(=O)NCCCCNC(=O)NCCOCCOCCNS(=O)(=O)c3ccc(O[C@H]4c5cc(Cl)cc(C#N)c5C[C@@H]4N4CCC[C@@H](N(C)C)C4)cc3)cc2)C1 [E-CN, 3-(2-{2-[2-(4-{[(1S,2S)-6-chloro-4-cyano-2-[(3R)-3-(dimethylamino)piperidin-1-yl]-2,3-dihydro-1H-inden-1-yl]oxy}benzenesulfonamido)ethoxy]ethoxy}ethyl)-1-(4-{[(2-{2-[2-(4-{[(1S,2S)-6-chloro-4-cyano-2-[(3R)-3-(dimethylamino)piperidin-1-yl]-2,3-dihydro-1H-inden-1-yl]oxy}benzenesulfonamido)ethoxy]ethoxy}ethyl)carbamoyl]amino}butyl)urea] | – | IC50 (NHE3; [2]): 1.26 nM; Percent Inhibition (NHE3): 36% |
| CN(C)[C@@H]1CCCN([C@H]2Cc3c(Cl)cc(Cl)cc3[C@@H]2Oc2ccc(S(=O)(=O)NCCOCCOCCNC(=O)NCCCCNC(=O)NCCOCCOCCNS(=O)(=O)c3ccc(O[C@H]4c5cc(Cl)cc(Cl)c5C[C@@H]4N4CCC[C@@H](N(C)C)C4)cc3)cc2)C1 [E-Cl, 3-(2-{2-[2-(4-{[(1S,2S)-4,6-dichloro-2-[(3R)-3-(dimethylamino)piperidin-1-yl]-2,3-dihydro-1H-inden-1-yl]oxy}benzenesulfonamido)ethoxy]ethoxy}ethyl)-1-(4-{[(2-{2-[2-(4-{[(1S,2S)-4,6-dichloro-2-[(3R)-3-(dimethylamino)piperidin-1-yl]-2,3-dihydro-1H-inden-1-yl]oxy}benzenesulfonamido)ethoxy]ethoxy}ethyl)carbamoyl]amino}butyl)urea] | – | IC50 (NHE3; [2]): 5.01 nM; Percent Inhibition (NHE3): 99% |
| Cc1cc(S(=O)(=O)NCCOCCOCCNC(=O)NCCCCNC(=O)NCCOCCOCCNS(=O)(=O)c2ccc(O[C@H]3c4cc(Cl)cc(C#N)c4C[C@@H]3N3CCNCC3)c(C)c2)ccc1O[C@H]1c2cc(Cl)cc(C#N)c2C[C@@H]1N1CCNCC1 [F-CN, 3-(2-{2-[2-(4-{[(1S,2S)-6-chloro-4-cyano-2-(piperazin-1-yl)-2,3-dihydro-1H-inden-1-yl]oxy}-3-methylbenzenesulfonamido)ethoxy]ethoxy}ethyl)-1-(4-{[(2-{2-[2-(4-{[(1S,2S)-6-chloro-4-cyano-2-(piperazin-1-yl)-2,3-dihydro-1H-inden-1-yl]oxy}-3-methylbenzenesulfonamido)ethoxy]ethoxy}ethyl)carbamoyl]amino}butyl)urea] | – | IC50 (NHE3; [2]): 2.51 nM; Percent Inhibition (NHE3): 88% |
| Cc1cc(S(=O)(=O)NCCOCCOCCNC(=O)NCCCCNC(=O)NCCOCCOCCNS(=O)(=O)c2ccc(O[C@H]3c4cc(Cl)cc(Cl)c4C[C@@H]3N3CCNCC3)c(C)c2)ccc1O[C@H]1c2cc(Cl)cc(Cl)c2C[C@@H]1N1CCNCC1 [F-Cl, 3-(2-{2-[2-(4-{[(1S,2S)-4,6-dichloro-2-(piperazin-1-yl)-2,3-dihydro-1H-inden-1-yl]oxy}-3-methylbenzenesulfonamido)ethoxy]ethoxy}ethyl)-1-(4-{[(2-{2-[2-(4-{[(1S,2S)-4,6-dichloro-2-(piperazin-1-yl)-2,3-dihydro-1H-inden-1-yl]oxy}-3-methylbenzenesulfonamido)ethoxy]ethoxy}ethyl)carbamoyl]amino}butyl)urea] | – | IC50 (NHE3; [2]): 20 nM; Percent Inhibition (NHE3): 104% |
| N#Cc1cc(Cl)cc2c1C[C@H](N1CCNCC1)[C@H]2Oc1ccc(S(=O)(=O)NCCOCCOCCNC(=O)NCCCCNC(=O)NCCOCCOCCNS(=O)(=O)c2ccc(O[C@H]3c4cc(Cl)cc(C#N)c4C[C@@H]3N3CCNCC3)cc2)cc1 [G-CN, 3-(2-{2-[2-(4-{[(1S,2S)-6-chloro-4-cyano-2-(piperazin-1-yl)-2,3-dihydro-1H-inden-1-yl]oxy}benzenesulfonamido)ethoxy]ethoxy}ethyl)-1-(4-{[(2-{2-[2-(4-{[(1S,2S)-6-chloro-4-cyano-2-(piperazin-1-yl)-2,3-dihydro-1-yl]oxy}benzenesulfonamido)ethoxy]ethoxy}ethyl)carbamoyl]amino}butyl)urea] | – | pIC50 (persistent) (NHE3; [2]): 9.0 |
| O=C(NCCCCNC(=O)NCCOCCOCCNS(=O)(=O)c1ccc(O[C@H]2c3cc(Cl)cc(Cl)c3C[C@@H]2N2CCNCC2)cc1)NCCOCCOCCNS(=O)(=O)c1ccc(O[C@H]2c3cc(Cl)cc(Cl)c3C[C@@H]2N2CCNCC2)cc1 [G-Cl, 3-(2-{2-[2-(4-{[(1S,2S)-4,6-dichloro-2-(piperazin-1-yl)-2,3-dihydro-1H-inden-1-yl]oxy}benzenesulfonamido)ethoxy]ethoxy}ethyl)-1-(4-{[(2-{2-[2-(4-{[(1S,2S)-4,6-dichloro-2-(piperazin-1-yl)-2,3-dihydro-1H-inden-1-yl]oxy}benzenesulfonamido)ethoxy]ethoxy}ethyl)carbamoyl]amino}butyl)urea] | – | IC50 (NHE3; [2]): 6.31 nM; Percent Inhibition (NHE3): 82% |
| C=CCc1ccccc1OCC(O)CNC(C)C (stereo not shown) [alprenolol] | 96 | – |
| O=C(O)P(=O)(O)O [foscarnet] | 17 | – |
| OC[C@@H](O)[C@@H](O)[C@H](O)[C@H](O)CO [mannitol, reference compound] | 26 | – |
| Cc1ccccc1N1C(=O)c2cc(S(N)(=O)=O)c(Cl)cc2NC1C (stereo not shown) [metolazone, Metolazone, reference compound] | 64 | – |
| O=C(O)c1cc(/N=N/c2ccc(O)c(C(=O)O)c2)ccc1O [olsalazine] | 2.3 | – |
| C=CCOc1ccccc1OCC(O)CNC(C)C (stereo not shown) [ozprenolol] | 97 | – |
| Cc1cc(=O)n(-c2ccccc2)n1C [phenazone] | 97 | – |
| CC(C)NCC(O)COc1cccc2[nH]ccc12 (stereo not shown) [pindolol] | 92 | – |
| CC(=O)Nc1ccc(OCC(O)CNC(C)C)cc1 (stereo not shown) [practolol] | 95 | – |
| OC[C@H]1O[C@H](OC[C@H]2O[C@H](O[C@]3(CO)O[C@H](CO)[C@@H](O)[C@@H]3O)[C@H](O)[C@@H](O)[C@@H]2O)[C@H](O)[C@@H](O)[C@H]1O [raffinose] | 0.3 | – |
| O=C(O)c1cc(/N=N/c2ccc(S(=O)(=O)Nc3ccccn3)cc2)ccc1O [sulfasalazine, reference compound] | 12 | – |
| CCN1CCCC1CNC(=O)c1cc(S(N)(=O)=O)ccc1OC (stereo not shown) [sulpiride] | 36 | – |
| NC[C@H]1CC[C@H](C(=O)O)CC1 [tranexamic acid] | 55 | – |
